Source: patent publication US7879792B2, “Synthetic peptide inhibitors of thrombin and thrombin activation of protease activated receptors 1 and 4” (The Regents of the University of Michigan, priority 2005, dated 2011)
Where a SMILES comes first, the peptide text is derived from it.

How the values were obtained:
[1] = system: γ-thrombin-induced platelet aggregation; assay: γ-thrombin-induced platelet aggregation in human platelet-rich plasma; assay type: cell-based; details: for Concentration of Peptide [mM] That Gives 100% Inhibition: 40 nM human gamma thrombin, human platelet-rich plasma
Method: Fresh whole blood was collected and mixed with 0.013 M sodium citrate and platelet-rich plasma was prepared according to the method of Meloni et al., J. Biol. Chem. 266, 6786 (1991). Platelet-rich plasma with a normalized platelet count between 2-2.5×10^8 platelets/ml was added to a cuvette of an aggregometer (Chronlog Corp., Havertown, Pa.), standardized using the protocol of Meloni et al., supra. Peptides to be examined were added to the cuvette and the mixture stabilized for a few moments. Once the baseline was stabilized, γ-thrombin (10-70 nM) (Haematologic Technologies, Essex Junction, Vt.) was added to determine the minimal concentration of the agonist necessary to achieve full platelet aggregation. All investigations with peptides were performed using threshold concentrations of γ-thrombin. Aggregation was allowed to proceed for 5 minutes before stopping.
Table III is a tabulation of the library of peptides prepared and their influence on γ-thrombin-induced platelet aggregation in platelet-rich plasma. […] The numbers in the column represent the minimal concentration (mM) of the peptide that blocked 100% γ-thrombin-induced platelet aggregation of platelets in human platelet-rich plasma.
Human platelet samples were stimulated with 40 nM human gamma thrombin in each experiment.

[2] = molecular target: T1, recombinant extracellular domain of human PAR1 (rPAR1EC) (Homo sapiens, UniProt P25116); assay: inhibition of RPPGFK-biotin binding to rPAR1EC; details: 15 μM RPPGFK-biotin
T1 construct: A portion of the extracellular domain of human PAR1 (Ala^26-Ser^99) (rPAR1EC) was expressed in Escherichia coli; KSI fusion protein (cleaved yes); His tag (cleaved yes); made in house; host or cells: E. coli BL21(DE3), pET31b
T1 sequence (P25116 26-99): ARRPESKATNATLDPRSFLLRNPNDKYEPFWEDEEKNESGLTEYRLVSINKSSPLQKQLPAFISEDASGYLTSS

[3] = molecular target: T2, recombinant extracellular domain of human PAR4 (rPAR4EC) (Homo sapiens, UniProt Q96RI0); assay: inhibition of RPPGFK-biotin binding to rPAR4EC; details: 15 μM RPPGFK-biotin
T2 construct: starting with Gly^18, the first amino acid after the signal peptide is removed, and finishing with Arg^78; KSI fusion protein (N, cleaved yes); His-tag (N, cleaved yes); made in house; host or cells: E. coli 'BLD (DE3)' cells, pET31b; cDNA from HEL cell mRNA
T2 sequence (Q96RI0 18-78): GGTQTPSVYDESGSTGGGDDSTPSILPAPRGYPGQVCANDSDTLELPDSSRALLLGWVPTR
Method: Investigations were performed to determine if the compounds in the present invention interact with the exodomain of human PAR4. The extracellular fragment of human PAR4 has been expressed in bacteria. Human erythroleukemia (HEL) cells were used as a source for PAR4 mRNA. The level of PAR4 mRNA was substantially higher in HEL cells than washed human platelets. […] These primers give a 204 basepair fragment which codes for a 61 amino acid hPAR4 protein starting with Gly^18, the first amino acid after the signal peptide is removed, and finishing with Arg^78, the last amino acid of the extracellular fragment (Xu et al. Proc. Natl. Acad. Sci. 95, 6642-6646 (1998)). The pET31b-PAR4 vector after cloning was used to transform BLD (DE3) cells to express the recombinant protein. After IPTG stimulation, the recombinant protein was isolated from the bacterial lysate on a nickel affinity column followed by treatment with CNBr to remove the KSI fusion protein and His-tag on its amino terminal end. The isolated recombinant extracellular domain of PAR4 (rPAREC) is about 9 kDa on 16.5% Tris-Tricine SDS-PAGE. The recombinant protein is recognized as being human PAR4 by detection with an antibody prepared from a peptide (S^41[…]^52) (SEQ ID NO:9) from human PAR4EC. Recombinant PAR4EC was linked to microtiter plate cuvette wells. Goat polyclonal antibody to human PAR1, PAR3, or PAR4 was incubated with the coated microtiter plate cuvette wells and antibody binding was detected. Only antibody to PAR4 detected rPAR4EC linked to the microtiter plate wells. […] These studies indicate that peptides of the present invention also physically interact with human PAR4.

[4] = system: normal human citrated plasma; assay: prothrombin time (PT); assay type: biochemical
Method: (§1) The influence of the various peptide formulations used in the present invention on established coagulation-based assays was determined. The activated partial thromboplastin time (APTT) is performed by mixing 0.05 ml normal human citrated plasma with 0.05 ml activated partial thromboplastin reagent purchased from Organon Teknika, Research Triangle Park, NC in the absence or presence of a peptide inhibitor. After incubation for 5 min at 37° C., the mixture is recalcified with 0.05 ml of 30 mM calcium chloride and the time to clot formation is measured in an Amelung KC4A instrument (Sigma Chemical Corp, St. Louis, Mo.) (Hasan et al. Thrombosis and Haemostasis. 82, 1182-1187 (1999)). The prothrombin time (PT) is performed by mixing 0.05 ml normal human citrated plasma with 0.05 ml Simplastin (Organon Teknika, Research Triangle Park, NC) followed by incubation for 3 min at 37° C. in the absence or presence of a peptide inhibitor. At the addition of 0.05 ml of 30 mM calcium chloride, the time to clot formation is measured in an KC4A instrument (Sigma Chemical Corp, St. Louis, Mo.) (Hasan et al. Thrombosis and Haemostasis. 82, 1182-1187 (1999)). The thrombin clotting time (TCT) is performed by adding 0.1 ml normal human citrated plasma in the absence or presence of a peptide inhibitor and 0.05 ml of a α-thrombin solution such that the final concentration of the thrombin in the entire mixture was 1 nM. Upon addition of the thrombin, the time to clot formation is measured in an KC4A instrument (Sigma Chemical Corp, St. Louis, Mo.).

[5] = system: normal human citrated plasma; assay: thrombin clotting time (TCT); assay type: biochemical; details: 1 nM thrombin
Method: as §1

N=C(N)NCCC[C@@H](N)C(=O)N1[C@H](C(=O)N2CCC[C@H]2C(=O)NCC(=O)N[C@@H](Cc2ccccc2)C(N)=O)C[C@@H]2CCCC[C@@H]21 [rOicPGF, D-Arg-Oic-Pro-Gly-Phe, reference compound] (HELM PEPTIDE1{[dR].[O=C([C@@H]1C[C@@H]2CCCC[C@@H]2N1[*:1])[*:2]].P.G.F.[am]}$$$$V2.0)
Concentration of Peptide [mM] That Gives 100% Inhibition [1]: 0.142 mM | RPPGFK-biotin displaced from rPAR1 exodomain ([2]; 1000 μM (1 mM) peptide): 50% | RPPGFK-biotin displaced from rPAR4 exodomain ([3]; 1 μM peptide (so in the source)): 50%

Cc1ccc(C[C@H](NC(=O)[C@@H](C)NC(=O)[C@@H]2CCCN2C(=O)[C@@H]2C[C@@H]3CCCC[C@@H]3N2C(=O)[C@H](N)CCCNC(=N)N)C(N)=O)cc1 [rOicPaF(p-Me), D-Arg-Oic-Pro-D-Ala-Phe(p-Me)] (HELM PEPTIDE1{[dR].[O=C([C@@H]1C[C@@H]2CCCC[C@@H]2N1[*:1])[*:2]].P.[dA].[Cc1ccc(C[C@H](N[*:1])C(=O)[*:2])cc1].[am]}$$$$V2.0)
Concentration of Peptide [mM] That Gives 100% Inhibition [1]: 0.016 mM | concentration that abolished γ-thrombin-induced platelet aggregation ([1]; 40 nM γ-thrombin): greater than or equal to 16 μM | γ-thrombin-induced platelet aggregation ([1]; 8 μM peptide, 40 nM γ-thrombin): returned to normal | peptide concentration with significant prolongation (p<0.05) of the PT [4]: 1.56 µM | peptide concentration with significant prolongation (p<0.05) of the TCT [5]: 0.78 µM | RPPGFK-biotin displaced from rPAR1 exodomain ([2]; 30 μM peptide): 23% | RPPGFK-biotin displaced from rPAR1 exodomain ([2]; 300 μM peptide): 52% | RPPGFK-biotin displaced from rPAR1 exodomain ([2]; 1000 μM (1 mM) peptide): 69% | RPPGFK-biotin displaced from rPAR4 exodomain ([3]; 30 μM peptide): 19% | RPPGFK-biotin displaced from rPAR4 exodomain ([3]; 300 μM peptide): 49% | RPPGFK-biotin displaced from rPAR4 exodomain ([3]; 1000 μM peptide): 63%
